Data reported in patent US20170189474A1, “ANTIFUNGAL THERAPY FOR THE TREATMENT OF HIRSCHSPRUNG-ASSOCIATED ENTEROCOLITIS” (Cedars-Sinai Medical Center, priority 2014, published 2017).

Tested on: 129SvEdnrb−/− (KO) mice with colonic aganglionosis
Experiment: Histological enterocolitis scoring after medicated water treatment in murine model of HAEC
Assay type: in vivo, mouse
Conditions: Ednrb−/− (KO) mice, antifungal only in drinking water, vs untreated KO; trend, did not reach significance
Text: Regular water treated KO mice (KO_H2O) and their wild type littermates (WT_H2O) were used as untreated control. […] The total enterocolitis score of each treatment was compared with KO_H2O by using unpaired two-tailed Student's t-test. Results are shown as Mean±SEM, *P<0.05; **P<0.01. We test antibiotic and antifungal agents and their combinations on the 129sv/Ednrb mouse strain shown to be a model of HAEC. The experimental groups and protocol are described below: Medicated water which contains enrofloxacin (Baytril), metronidazole, vancomycin, natamycin ([…]), fluconazole, and/or […] (Isavuconazole sulfate) are administered to pregnant mice from the time that the pregnancy is noted, through weaning of the pups. In other words, the administration of medicated water to moms are stopped after weaning, and then continued with the weaned pups. Six groups of animals (129sv/Ednrb-null mouse strain, n=5-8 per group) with different treatment are described as below. The dosage was calculated by the concentration of antibiotic and antifungal agents and assuming a mouse taking 5 ml water per day based on published data. Group 1. […] Significant changes in makeup between the samples will be verified by quantitative PCR. […]

OC(Cn1cncn1)(Cn1cncn1)c1ccc(F)cc1F [AFX2, fluconazole]
reduction of mean enterocolitis score: 34%

C[C@@H]1C/C=C/C=C/C=C/C=C/[C@H](O[C@@H]2O[C@H](C)[C@@H](O)[C@H](N)[C@@H]2O)C[C@@H]2O[C@](O)(C[C@@H](O)C[C@H]3O[C@@H]3/C=C/C(=O)O1)C[C@H](O)[C@H]2C(=O)O [AFX1, natamycin]
reduction of mean enterocolitis score: 42%
